Assay results published in patent US11292758B2, “Compounds and methods for delivery of prostacyclin analogs” (United Therapeutics Corporation, priority 2003, dated 2022).
Read-outs that look alike come from different tables or passages of the source.

Assays:
Caco-2 cell monolayers = assay: Permeability across Caco-2 cell monolayers; assay type: in vitro ADME
Excerpt: (§1) There are two major barriers to deliver treprostinil in the circulatory system. One of these barriers is that treprostinil undergoes a large first pass effect. […] The permeability of treprostinil has been measured across Caco-2 cell monolayers. […] It is believed that the p-glycoprotein efflux pump prevents certain pharmaceutical compounds from traversing the mucosal cells of the small intestine and, therefore, from being absorbed into systemic circulation.

[1] = First pass effect on circulating through the liver; assay type: in vivo
Excerpt: as §1

[2] = Skin contact irritation testing
Excerpt: In contrast, some of the compounds disclosed herein, generally as prodrugs of treprostinil, are not irritating to the skin. Accordingly, the present compounds are well suited for topical or transdermal administration.

[3] = rat, in vivo
in vivo = settings: male, Sprague-Dawley, rat
[4] = Bioavailability and pharmacokinetics of treprostinil in rats after intravenous, intraportal vein, intraduodenal, intracolonic and oral dosing (Example 1); settings: rats dosed via the portal vein, 1 mg/kg, before the thirty-minute sample
[5] = male, Sprague-Dawley, iv, 1 mg/kg
[6] = 1 mg/kg, Average (n = 3) plasma concentrations
[7] = 1 mg/kg, Average plasma concentrations
[8] = iv, 1 mg/kg, Average (n = 3) plasma concentrations
[9] = po, 1 mg/kg, Average (n = 3) plasma concentrations

**Q.** Which results are given for `CCCCC[C@H](O)CC[C@@H]1[C@H]2Cc3cccc(OCC(=O)O)c3C[C@H]2C[C@H]1O` [Treprostinil, treprostinil]?
**A.** apical to basal transport rate (Caco-2 cell monolayers): 1.39e-06 cm/s; basal to apical transport rate (Caco-2 cell monolayers): 1.23e-05 cm/s; absorbed dose left after first pass [1]: about 40%; treprostinil plasma levels metabolized upon first circulating through the liver [1]: about 60%; skin irritation upon skin contact [2]: can be irritating upon skin contact; compound absorbed in the intestine ([3]; male, Sprague-Dawley): approximately 60%; Tmax ([3]; male, Sprague-Dawley, 1 mg/kg): 2 min; Average (n = 3) plasma concentrations ([3]; male, Sprague-Dawley, 1 mg/kg, 360 min): 0.06^λ ng/mL; Average (n = 3) plasma concentrations ([3]; male, Sprague-Dawley, 1 mg/kg, 480 min): 0.20^λ ng/mL; CLs [3, 5]: 88.54 mL/min/kg; Volume of Distribution [3, 5]: 1.98 L/kg; distribution and elimination of the compound that occurs by 60 minutes post-dosing ([3]; male, Sprague-Dawley, iv, 60 min): over 90%; Clinical observations ([3]; iv, 1 mg/kg): extreme lethargy; concentration at 360 min (in vivo; [6]): 0.89 ng/mL; concentration at 480 min (in vivo; [6]): 0.9 ng/mL; concentration at 2 min (in vivo; [7]): 302 ng/mL; concentration at 5 min (in vivo; [7]): 97.4 ng/mL; concentration at 15 min (in vivo; [7]): 48 ng/mL; concentration at 30 min (in vivo; [7]): 21.9 ng/mL; concentration at 60 min (in vivo; [7]): 11.1 ng/mL; concentration at 120 min (in vivo; [7]): 3.87 ng/mL; concentration at 240 min (in vivo; [7]): 2.51 ng/mL; concentration at 360 min (in vivo; [7]): 4.95 ng/mL; concentration at 480 min (in vivo; [7]): 5.14 ng/mL; Tmax (in vivo): ≤ 5 min; Vd (in vivo; iv, 1 mg/kg): 1.98 L/kg; clearance (in vivo; iv, 1 mg/kg): 88.5 mL/min/kg; concentration at 2 min (in vivo; [8]): 1050 ng/mL; concentration at 5 min (in vivo; [8]): 364 ng/mL; concentration at 15 min (in vivo; [8]): 131 ng/mL; concentration at 30 min (in vivo; [8]): 55.6 ng/mL; concentration at 60 min (in vivo; [8]): 14.4 ng/mL; concentration at 120 min (in vivo; [8]): 4.45 ng/mL; concentration at 240 min (in vivo; [8]): 1.09 ng/mL; concentration at 360 min (in vivo; [8]): 0.5 ng/mL; concentration at 480 min (in vivo; [8]): 0.3 ng/mL; AUC(0-t) (in vivo; iv, 1 mg/kg, Average AUC480 min): 188 ng·h/mL; Cmax (in vivo; iv, 1 mg/kg): 2120 ng/mL; AUC(0-t) (in vivo; iv, 1 mg/kg, Individual AUC480 min): 172 ng·h/mL; Tmax (in vivo; iv, 1 mg/kg): 0 min; half-life (in vivo; iv, 1 mg/kg, T½ (terminal plasma half-life)): 94 min; half-life (in vivo; iv, 1 mg/kg, half-life of the distribution phase): 10.3 min; concentration at 5 min (in vivo; [9]): 4.52 ng/mL; concentration at 15 min (in vivo; [9]): 2.9 ng/mL; concentration at 30 min (in vivo; [9]): 3.67 ng/mL; concentration at 60 min (in vivo; [9]): 2.06 ng/mL; concentration at 120 min (in vivo; [9]): 4.52 ng/mL; concentration at 240 min (in vivo; [9]): 1.82 ng/mL; concentration at 360 min (in vivo; [9]): 0.9 ng/mL; concentration at 480 min (in vivo; [9]): 0.96 ng/mL; AUC(0-t) (in vivo; po, 1 mg/kg, Average AUC480 min): 17.3 ng·h/mL; bioavailability (in vivo; po, 1 mg/kg, Average Bioavailability (%) ± SD): 9.2 ± 1.4%; Cmax (in vivo; po, 1 mg/kg): 5 ng/mL; AUC(0-t) (in vivo; po, 1 mg/kg, Individual AUC480 min): 16.6 ng·h/mL; bioavailability (in vivo; po, 1 mg/kg, Individual Bioavailability): 8.9%; Tmax (in vivo; po, 1 mg/kg): 5 min; Mortality [4]: One rat (#123) expired
